Laboratory results from patent US5130119A, “Method of using fluorosubstituted benzene derivatives in F-NMR imaging” (Schering Aktiengesellschaft, priority 1988, dated 1992).
Values joined by “and” are separate entries in the source; they are usually repeats but may differ in a detail not shown here. Identical values can stand only once.

Key:
[1] = intravenous acute tolerability (LD50) on the mouse; conditions: in vivo
Procedure: Thus, for example, an intravenous acute tolerability (LD50) of 4 mmol/kg of body weight was determined on the mouse for 5-[N-(4-fluoro-2-trifluoromethylphenyl)sulfamoyl)-isophthalic acid (Example 13).

[2] = system: rat (whole animal; bladder area); assay: in vivo 19F NMR spectroscopic pH determination; parameters: species or system female rats of the Wistar-Han-Schering strain (SPF); conditions: 0.5 mmol/kg i.v.
Procedure: Performance of in vivo ^19 F NMR spectroscopic pH determinations with 5-[N-(4-fluoro-2-trifluoromethylphenyl)sulfamoyl]-isophthalic acid (Example 13)
An aqueous solution of the fluorocompound is produced with a concentration of 0.4 mol/1. The pH of the aqueous solution is adjusted with NaOH to 7.2.
The NMR spectra are measured with an animal experimental nuclear spin tomograph (General Electric), which operates with a field strength of 2 tesla (corresponds to an RF resonance frequency of 80.5 MHz). The signals can be picked up by the whole-body coil (animal size) or surface coils.
The experiments are performed with female rats of the Wistar-Han-Schering strain (SPF) with a body weight of 200 g. The animal is anesthetized by an intramuscular injection of Rompun/Ketavet (1:1, 1 ml/kg of body weight). Then a butterfly needle is placed in the animal in one of the tail veins. The animal is placed in a whole-body coil and the latter is tuned to the fluororesonance frequency. The spectrum of the entire animal is developed with this coil, i.e., no volume-selective spectroscopy is performed.
The fluorinated compound is applied intravenously within 30 seconds in a dose of 0.5 mmol/kg and an F spectrum is registered within 4 minutes.
After measurement of the total animal, the animal was removed from the coil and positioned on a surface coil so that the bladder area was picked up by the coil. […] The intense signals originate from the fluorocompound in the bladder. The chemical shift in the aromatic range is identical with the deep-field signal of the aromatic range in FIG. 2.

[3] = system: kidney, bladder and ureter; assay: 19F imaging; assay type: in vivo, rat
Source text: FIG. 4 relates to Example 50 and is the projection ^19 F image of the kidney, bladder, and ureters of a rat administered 0.75 mmol/kg of 5-[N-4-fluoro-2-trifluoromethylphenyl)sulfamoyl] isophthalic acid and 0.2 mmol/kg GdDTPA.
Production of the solution of the fluorinated substance as well as preparation of the animal take place as in taking the ^19 F NMR spectra.
The test animal is placed in the measuring coil and the fluorinated compound is applied in a dose of 0.75 mmol/kg of body weight by the tail vein in 1 minute. Then an intravenous application takes place, also by needle in the tail vein, of GdDTPA in a dose of 0.2 mmol/kg. Making of the image takes place with a projection spin echo sequence and the parameters: TR=28 msec (repetition rate), TE=4 msec (echo time), NEX=256 (number of averagings); the total measuring time is 15 minutes.

O=C(O)c1cc(C(=O)O)cc(S(=O)(=O)Nc2ccc(F)cc2C(F)(F)F)c1 [Example 13, 5-[N-(4-fluoro-2-trifluoromethylphenyl)sulfamoyl]-isophthalic acid]
LD50 [1]: 4000 µmol/kg
pH calculated from the chemical shifts (2 environments) ([2]; 5 minutes after application, whole rat, 2 tesla, CF3 reference signal): 6.5 and 7.7
19F signal from the alkaline range ([2]; 50 minutes after application): almost disappeared
19F signal in the acid range ([2]; 50 minutes after application): split into several signals
location of lowest pH in the animal ([2]; bladder area, surface coil, 20 minutes measuring time): the lowest (most acid) pH is in the bladder
excretion ([2]; bladder area, surface coil, 70 minutes after application, 20 minutes measuring time): renally excreted
distribution at the beginning of the experiment ([2]; whole rat): found only in the blood
distribution 50 minutes after application ([2]; whole rat, 50 minutes): distributed extravascularly
excretion (imaging) ([3]; 0.75 mmol/kg i.v. plus GdDTPA 0.2 mmol/kg): renally excreted
19F image ([3]; 0.75 mmol/kg i.v. plus GdDTPA 0.2 mmol/kg i.v., projection spin echo, 15 minutes): shows the kidney, bladder and ureter
F concentration in kidney, bladder and ureter ([3]; 0.75 mmol/kg i.v., reabsorption of water in these areas): high F concentration
